Results as given in US20100016290A1, “AMORPHOUS POLYMORPH OF BAZEDOXIFENE ACETATE” (priority 2008, published 2010).

Experiments:
[1] = Form C on ATR-IR sensor in ethanol vapor atmosphere; type: physicochemical; conditions: room temperature
Excerpt: IR spectra (see, e.g. FIG. 2) were acquired by placing a few milligrams of the powder of the sample on a diamond sensor ATR (Attenuated Total Reflection) probe (Dicomp) using a React-IR 4000 system operated at 4 cm^−1 resolution and 128 scans between 650-4000 cm^−1.
Some experiments were executed by creating an ethanol vapor atmosphere around the ATR sensor at room temperature.

[2] = Mortar and pestle trials of Form A under mechanical stress (DSC, XRPD); type: physicochemical; conditions: for decrease in the Enthalpy of Fusion (Form A): after 10 min mixing in reaction solvent
Description: Mortar and pestle trials were conducted to test the behavior of polymorph Form A under mechanical stress and to test and measure the kinetics of conversion of crystalline Form A to Form B under mechanical stress (possibly via amorphous Form C).

Question: Which results are given for `Cc1c(-c2ccc(O)cc2)n(Cc2ccc(OCCN3CCCCCC3)cc2)c2ccc(O)cc12` [Form C, 1-[4-(2-azepan-1-yl-ethoxy)-benzyl]-2-(4-hydroxy-phenyl)-3-methyl-1H-indol-5-ol acetic acid]?
Answer: polymorph form present ([1]; after two hours): only polymorph Form B was present; transformation of polymorph form ([1]; on ATR sensor): transform rapidly into polymorph Form B

Question: Which “decrease in the Enthalpy of Fusion (Form A)” value [2] does the source give for `CC(=O)O.Cc1c(-c2ccc(O)cc2)n(Cc2ccc(OCCN3CCCCCC3)cc2)c2ccc(O)cc12` [Sample 8] here?
Answer: Its value is “About 50%”.

Question: And the “amorphous Form C formed under mechanical stress” value ([2]; confirmed by powder XRD (FIG. 5))?
Answer: Its value is “significant amount of amorphous Form C”.

Question: With `CC(=O)O.Cc1c(-c2ccc(O)cc2)n(Cc2ccc(OCCN3CCCCCC3)cc2)c2ccc(O)cc12` [Sample 7] as the compound, how does the “decrease in the Enthalpy of Fusion (Form A)” value [2] read?
Answer: Its value is “About 30%”.
